Test [1] addresses Human α2δ-1 subunit of Cav2.2 calcium channel (Homo sapiens, UniProt P54289). The test can be described thus: Human α2δ-1 subunit of Cav2.2 calcium channel assay ([3H]-Gabapentin binding). The procedure: Human α2δ-1 Subunit of Cav2.2 Calcium Channel Assay
Human α2δ-1 enriched membranes (2.5 μg) were incubated with 15 nM of radiolabeled [3H]-Gabapentin in assay buffer containing Hepes-KOH 10 mM, pH 7.4. NSB (non specific binding) was measured by adding 10 μM pregabalin. After 60 min incubation at 27° C., binding reaction was terminated by filtering through Multiscreen GF/C (Millipore) presoaked in 0.5% polyethyleneimine in Vacuum Manifold Station, followed by 3 washes with ice-cold filtration buffer containing 50 mM Tris-HCl, pH 7.4. Filter plates were dried at 60° C. for 1 hour and 30 μl of scintillation cocktail were added to each well before radioactivity reading. Readings were performed in a Trilux 1450 Microbeta radioactive counter (Perkin Elmer).

In the next test the target is T1, human μ-opioid receptor (Homo sapiens, UniProt P35372).
T1 construct: expressed in transfected cells; host or cells: CHO-K1
The test can be described thus: Human μ-opioid receptor radioligand assay ([3H]-DAMGO). Type of test: binding. The procedure:
Human μ-Opioid Receptor Radioligand Assay
To investigate binding properties of test compounds to human μ-opioid receptor, transfected CHO-K1 cell membranes and [^3H]-DAMGO (Perkin Elmer, ES-542-C), as the radioligand, were used. The assay was carried out with 20 μg of membrane suspension, 1 nM of [^3H]-DAMGO in either absence or presence of either buffer or 10 μM Naloxone for total and non-specific binding, respectively. Binding buffer contained Tris-HCl 50 mM, MgCl2 5 mM at pH 7.4. Plates were incubated at 27° C. for 60 minutes. After the incubation period, the reaction mix was then transferred to MultiScreen HTS, FC plates (Millipore), filtered and plates were washed 3 times with ice-cold 10 mM Tris-HCL (pH 7.4). Filters were dried and counted at approximately 40% efficiency in a MicroBeta scintillation counter (Perkin-Elmer) using EcoScint liquid scintillation cocktail.

The mark [2] stands for this setting: human α2δ-1 enriched membranes, 15 nM [3H]-Gabapentin, read-out: α2δ-1 binding.
The mark [3] stands for this setting: transfected CHO-K1 cell membranes, 1 nM [3H]-DAMGO, read-out: μ binding.

16 compounds from patent US20200002283A1, “PYRAZOLE DERIVATIVES HAVING ACTIVITY AGAINST PAIN” (priority 2016, published 2020) can be followed below.

Where two headings read alike, the source gives them in different places.

Human α2δ-1 subunit of Cav2.2 calcium channel, sequence (P54289 25-1103): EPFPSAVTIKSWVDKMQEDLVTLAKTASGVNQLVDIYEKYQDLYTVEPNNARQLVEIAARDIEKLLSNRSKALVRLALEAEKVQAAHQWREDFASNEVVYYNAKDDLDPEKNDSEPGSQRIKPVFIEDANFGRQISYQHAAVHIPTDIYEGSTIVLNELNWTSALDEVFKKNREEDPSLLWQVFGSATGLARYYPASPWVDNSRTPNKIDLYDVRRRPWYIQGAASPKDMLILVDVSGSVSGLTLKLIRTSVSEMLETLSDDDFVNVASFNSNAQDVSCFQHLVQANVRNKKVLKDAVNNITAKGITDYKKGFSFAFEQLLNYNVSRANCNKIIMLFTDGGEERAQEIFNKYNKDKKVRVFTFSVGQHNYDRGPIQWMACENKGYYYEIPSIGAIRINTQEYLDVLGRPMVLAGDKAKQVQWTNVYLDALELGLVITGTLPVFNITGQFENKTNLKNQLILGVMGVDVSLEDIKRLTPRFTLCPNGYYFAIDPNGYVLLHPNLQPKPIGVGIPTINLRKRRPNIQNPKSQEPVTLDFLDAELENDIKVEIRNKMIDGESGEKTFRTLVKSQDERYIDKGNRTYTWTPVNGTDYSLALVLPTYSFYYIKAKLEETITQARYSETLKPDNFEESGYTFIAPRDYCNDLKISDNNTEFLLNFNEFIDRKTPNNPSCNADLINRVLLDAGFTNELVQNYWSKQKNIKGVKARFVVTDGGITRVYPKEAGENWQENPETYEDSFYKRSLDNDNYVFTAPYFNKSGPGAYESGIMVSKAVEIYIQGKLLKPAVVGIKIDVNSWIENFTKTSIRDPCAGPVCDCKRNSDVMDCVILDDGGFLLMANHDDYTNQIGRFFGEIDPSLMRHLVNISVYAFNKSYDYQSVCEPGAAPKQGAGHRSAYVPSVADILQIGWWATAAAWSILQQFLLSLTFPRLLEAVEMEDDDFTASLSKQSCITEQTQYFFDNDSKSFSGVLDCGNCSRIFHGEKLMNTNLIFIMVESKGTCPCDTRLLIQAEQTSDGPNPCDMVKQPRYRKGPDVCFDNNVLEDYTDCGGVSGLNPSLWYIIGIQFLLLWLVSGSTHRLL
T1 sequence (P35372 whole entry): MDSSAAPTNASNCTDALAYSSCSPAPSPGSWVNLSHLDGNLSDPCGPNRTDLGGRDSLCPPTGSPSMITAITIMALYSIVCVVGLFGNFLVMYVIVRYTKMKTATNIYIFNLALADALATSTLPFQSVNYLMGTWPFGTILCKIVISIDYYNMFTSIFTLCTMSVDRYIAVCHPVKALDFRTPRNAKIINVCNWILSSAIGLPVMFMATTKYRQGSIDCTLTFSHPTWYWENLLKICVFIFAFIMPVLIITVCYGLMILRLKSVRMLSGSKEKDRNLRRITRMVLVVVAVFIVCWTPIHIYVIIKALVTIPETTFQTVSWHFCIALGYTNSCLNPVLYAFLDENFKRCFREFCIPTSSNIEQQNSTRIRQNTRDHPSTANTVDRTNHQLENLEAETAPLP

For the compound `CCC(CN)c1cc(Cc2ccc(O)cc2)n(-c2ccc(Cl)cc2Cl)n1` (centres unmarked) [Example 60, 4-{[3-(1-Aminobutan-2-yl)-1-(2,4-dichlorophenyl)-1H-pyrazol-5-yl]methyl}phenol], the Ki in test [1] was over 5 µM; on human μ-opioid receptor, under 0.1 µM.
The corresponding values for `C[C@H](N)c1cc(Cc2ccc(O)cc2)n(-c2ccc(Cl)cc2Cl)n1` [Example 61, (S)-4-{[3-(1-Aminoethyl)-1-(2,4-dichlorophenyl)-1H-pyrazol-5-yl]methyl}phenol] are under 0.5 µM and under 0.1 µM.
For `C[C@@H](N)c1cc(Cc2ccc(O)cc2)n(-c2ccc(Cl)cc2Cl)n1` [Example 62, (R)-4-{[3-(1-Aminoethyl)-1-(2,4-dichlorophenyl)-1H-pyrazol-5-yl]methyl}phenol], in that order: 0.5 to 3 µM and under 0.1 µM.
Take `CC(N)c1cc(Cc2ccc(O)cc2)n(C2CCCCC2)n1` (centres unmarked) [Example 65, 4-{[3-(1-Aminoethyl)-1-cyclohexyl-1H-pyrazol-5-yl]methyl}phenol]: the Ki in test [1] is under 0.5 µM; on human μ-opioid receptor, over 0.5 µM.
With `CC(N)c1cc(Cc2ccc(O)cc2)n(C2CCOCC2)n1` (centres unmarked) [Example 66, 4-{[3-(1-Aminoethyl)-1-(tetrahydro-2H-pyran-4-yl)-1H-pyrazol-5-yl]methyl}phenol], the Ki in test [1] (setting [2]) is over 5 µM; on human μ-opioid receptor (setting [3]), over 0.5 µM.
On to `CC(N)c1cc(Cc2ccc(O)cc2)n(CCc2ccccc2)n1` (centres unmarked) [Example 67, 4-{[3-(1-Aminoethyl)-1-phenethyl-1H-pyrazol-5-yl]methyl}phenol], for which the Ki in test [1] (setting [2]) is over 5 µM; on human μ-opioid receptor (setting [3]), over 0.5 µM.
Take `CC(N)Cc1cc(Cc2ccc(O)cc2)n(-c2ccc(Cl)cc2Cl)n1` (centres unmarked) [Example 68, 4-{[3-(2-Aminopropyl)-1-(2,4-dichlorophenyl)-1H-pyrazol-5-yl]methyl}phenol]: the Ki in test [1] is over 5 µM; on human μ-opioid receptor, under 0.1 µM.
The corresponding values for `COc1ccc(-n2nc([C@@H](C)N)cc2Cc2ccc(O)cc2)c(Cl)c1` [Example 69, (R)-4-{[3-(1-Aminoethyl)-1-(2-chloro-4-methoxyphenyl)-1H-pyrazol-5-yl]methyl}phenol] are over 5 µM and 0.1 to 0.5 µM.
The corresponding values for `COc1ccc(-n2nc([C@H](C)N)cc2Cc2ccc(O)cc2)c(Cl)c1` [Example 70, (S)-4-{[3-(1-Aminoethyl)-1-(2-chloro-4-methoxyphenyl)-1H-pyrazol-5-yl]methyl}phenol] are under 0.5 µM and 0.1 to 0.5 µM.
The corresponding values for `NC(CO)c1cc(Cc2ccc(O)cc2)n(-c2ccc(Cl)cc2Cl)n1` (centres unmarked) [Example 71, 4-{[3-(1-Amino-2-hydroxyethyl)-1-(2,4-dichlorophenyl)-1H-pyrazol-5-yl]methyl}phenol] are over 5 µM and 0.1 to 0.5 µM.
For `NC(CN1CCCCC1)c1cc(Cc2ccc(O)cc2)n(-c2ccc(Cl)cc2Cl)n1` (centres unmarked) [Example 72, 4-({3-[1-Amino-2-(piperidin-1-yl)ethyl]-1-(2,4-dichlorophenyl)-1H-pyrazol-5-yl}methyl)phenol], the Ki is over 5 µM in test [1] and 0.1 to 0.5 µM on human μ-opioid receptor.
For `NC(CN1CCOCC1)c1cc(Cc2ccc(O)cc2)n(-c2ccc(Cl)cc2Cl)n1` (centres unmarked) [Example 73, 4-{[3-(1-Amino-2-morpholinoethyl)-1-(2,4-dichlorophenyl)-1H-pyrazol-5-yl]methyl}phenol], the values for the Ki (in test [1] (setting [2]); at human μ-opioid receptor (setting [3])) were over 5 µM and over 0.5 µM, respectively.
The corresponding values for `NCc1cc(Cc2ccc(Nc3nccs3)cc2)n(-c2ccc(Cl)cc2Cl)n1` [Example 74, N-(4-{[3-(Aminomethyl)-1-(2,4-dichlorophenyl)-1H-pyrazol-5-yl]methyl}phenyl)thiazol-2-amine] are 0.5 to 3 µM and over 0.5 µM.
As to `CC(N)c1cc(Cc2ccc(OCCO)cc2)n(-c2ccc(Cl)cc2Cl)n1` (centres unmarked) [Example 75, 2-(4-{[3-(1-Aminoethyl)-1-(2,4-dichlorophenyl)-1H-pyrazol-5-yl]methyl}phenoxy)ethan-1-ol], the figures for the Ki (in test [1] (setting [2]); on human μ-opioid receptor (setting [3])) were 0.5 to 3 µM and over 0.5 µM, respectively.
For the compound `NC(CC(=O)O)c1cc(Cc2ccc(O)cc2)n(-c2ccc(Cl)cc2Cl)n1` (centres unmarked) [Example 76, 3-Amino-3-[1-(2,4-dichlorophenyl)-5-(4-hydroxybenzyl)-1H-pyrazol-3-yl]propanoic acid], the Ki in test [1] is over 5 µM; on human μ-opioid receptor, 0.1 to 0.5 µM.
For `NC(=O)CC(N)c1cc(Cc2ccc(O)cc2)n(-c2ccc(Cl)cc2Cl)n1` (centres unmarked) [Example 77, 3-Amino-3-[1-(2,4-dichlorophenyl)-5-(4-hydroxybenzyl)-1H-pyrazol-3-yl]propanamide], in that order: over 5 µM and under 0.1 µM.
